Legend:
Trypanosoma cruzi [1] = test: (§1) GSK_TCAKS: pIC50 H2C9 Imaging: H9c2 Host Cardiomyocytes. […] Cells were then washed once with PBS before infection. T. cruzi trypomastigotes, collected at days 5 to 8 after infection from LLC-MK2 parasite infected cultures, were allowed to swim out for 4h at 37C from a centrifuged pellet (2,500 rpm/10 min/room temperature). Trypomastigotes were then collected and counted in a CASY Cell Counter. Trypomastigotes, in supplemented DMEM, were added to H9c2 cultures in a multiplicity of infection of 1 and incubated for 18 h. Cells were washed once with PBS before incubation of the infected H9c2 monolayer with trypsin (Life-Technologies) to detach cells from the flask. Cells were counted in a CASY Cell Counter using a 150 um capillary and their density set at 5 * 10^4 cells per mL in supplemented assay DMEM. Infected H9c2 were dispensed into 384-well poly-lysine coated assay plates at 50uL per well using a Multidrop Combi dispenser. After seeding them, the plates were incubated at 37C, 5% CO2 for 72h. Cultures were then fixed and stained by addition of 50 uL of a solution containing 8% formaldehyde and 4 uM DRAQ5 DNA dye (BioStatus, UK) per well. […] Five images were collected per well for reliable statistical analysis. Automated image analysis was performed with a script developed on Acapella High Content Imaging and Analysis Software (PerkinElmer). Output: Number of H9c2 Host Cardiomyocytes nuclei to determine drug-related cytotoxicity.; type: functional, organism-based, Rattus norvegicus; conditions: H9c2, 4 h
Leishmania donovani [2] = test: (§2) GSK_TCAKS: pIC50 Leishmania donovani Imaging: THP-1 Host Macrophages. Assay plates (384-well) were prepared by adding 250nL of compound to each well. For single shot assay, the final compound concentration was 5 uM. […] Automated image analysis was performed with a script developed on Acapella High Content Imaging and Analysis Software (PerkinElmer). Output: THP-1 cell count were reported for each well.; type: functional, organism-based, Homo sapiens
Trypanosoma cruzi [3] = test: GSK_TCAKS: pIC50 Trypanosoma cruzi viability assay using beta-GAL activity. This assay was run at single shot at 5uM compound concentration per well. The biological reagents consisted of NIH-3T3 host cells and trypomastigotes parasitic cells; both cell types were set to a 3.3 * 10^5 cells/mL dilution in assay DMEM by means of a CASY cell counter device using a 60um capillary. 6 uL of the mixture were dispensed per well (about 1 * 10^3 host-cells and 1 * 10^3 parasites) with a Multidrop Combi dispenser. […] In all wells, the percentage of DMSO never exceeded 0.5%. Plates incubated for four days at 37C, 5% CO2. The substrate used for the assay fluorescence intensity (FLINT) readout was resorufin-beta-D-galactopiranoside (Sigma-Aldrich) at 5uM per well. It was diluted in PBS supplemented with the soft detergent Igepal (Fluka).; type: functional, organism-based, Mus musculus; conditions: Tulahuen, NIH3T3
Trypanosoma cruzi [4] = test: as §1, with “Trypanosoma cruzi” for “H2C9”, “Infected Cells.” for “H9c2 Host Cardiomyocytes.”, “percentage” for “Number”, “infected cells per well as a second infection marker.” for “H9c2 Host Cardiomyocytes nuclei to determine drug-related cytotoxicity.”; type: functional, organism-based, Rattus norvegicus; conditions: H9c2, 4 h
Trypanosoma cruzi [5] = test: as §1, with “Trypanosoma cruzi” for “H2C9”, “Amastigotes/Cell.” for “H9c2 Host Cardiomyocytes.”, “number” for “Number”, “amastigotes per cell as infection level measurement.” for “H9c2 Host Cardiomyocytes nuclei to determine drug-related cytotoxicity.”; type: functional, organism-based, Rattus norvegicus; conditions: H9c2, 4 h
Leishmania donovani [6] = test: as §2, with “Amastigotes/Macrophages.” for “THP-1 Host Macrophages.”, “Average number of amastigotes per macrophage” for “THP-1”, “cell” for “cell count”; type: functional, organism-based, Homo sapiens; conditions: THP-1
Leishmania donovani [7] = test: as §2, with “Infected” for “THP-1 Host”, “Percent of infected macrophage cells” for “THP-1 cell count”; type: functional, organism-based, Homo sapiens; conditions: THP-1
[8] = tested on: Trypanosoma brucei brucei; test: GSK_TCAKS: pIC50 Trypanosoma brucei viability assay using luminiscence. Assay plates (1536-well) were prepared. T. brucei cultures were harvested and counted in a CASY cell counter. A parasite suspension was prepared at a final concentration of 5 * 10^4 cells/mL in complete HMI9 medium and 6uL was dispensed to all wells containing compounds using a Multidrop Combi dispenser. 6uL of HMI9 media with 0.4% DMSO were dispensed to control columns. Plates were incubated for 24 h at 37C, 5% CO2 then tempered for 10 min at room temperature. ATP content was quantified by adding 4 uL of CellTiter-Glo Reagent (Promega) according to the manufacturer's instructions. Luminescence was measured using a ViewLux.; type: functional, organism-based; conditions: Lister 427, CASY
[9] = target: Sterol 14-alpha demethylase (Trypanosoma cruzi (strain CL Brener), UniProt Q7Z1V1); test: GSK_TCAKS: pIC50 CYP51 from Trypanosoma cruzi.; type: functional
Leishmania donovani [10] = test: GSK_TCAKS: pIC50 Leishmania donovani viability assay using fluorescence intensity. Assay plates (1536-well) were prepared by adding 30nL per well of compound. For single shot assay, the final compound concentration was 5uM. […] Briefly, eGFP LdBOB axenic amastigotes were harvested, fixed and counted in a CASY cell counter (Roche-Applied Science). A final concentration of 1.5 * 10^5 cells per well were prepared in amastigote media containing 500 U/mL penicillin/streptomycin (Invitrogen) and 6uL was dispensed to each experimental well using a Multidrop Combi dispenser (Thermo Scientific). 6uL of assay media was dispensed to control columns used as reference for 100% compound response. Following incubation for 72 h at 37C, 5% CO2, 2 uL of resazurin was added to each well at a final concentration of 0.5 mM in phosphate buffered saline (PBS) with IGEPAL (Sigma-Aldrich), 0.05% (v/v).; type: functional, organism-based
[11] = tested on: Trypanosoma brucei brucei; test: GSK_TCAKS: pIC50 Trypanosoma brucei viability assay using fluorescence intensity. Assay plates (1536-well) were prepared by dispensing 25nL of compound solution per well using an Echo acoustic dispenser (Labcyte).; type: functional, organism-based; conditions: Lister 427, 2 h
[12] = GSK_TCAKS: pIC50 HepG2 human cell line viability assay using luminiscence. […] Seeding density was checked to ensure that new mono-layers were not more than 50% confluent at the time of harvesting. Cell suspension was added to 500 mL of the same medium at a final density of 1.2 * 10^5 cells/mL. This cell suspension was dispensed (25 uL, 3000 cells per well) into 384-well clear-bottom plates using a Multidrop Combi dispenser. Prior to addition of the cell suspension, the screening compounds (250 nL) were pre-dispensed into the plates with an Echo liquid handler. Plates were incubated for 48 h at 37C, 5% CO2. After incubation, plates equilibrated at room temperature for 30 min before proceeding to develop the luminescent signal. The signal developer, CellTiter-Glo Reagent, was allowed to equilibrate at room temperature for 30 min and added to the plates (25uL per well) using a Multidrop Combi dispenser. Plates were left for 10 min at room temperature for stabilization and then read using a ViewLux.; type: toxicity, cell-based

Chain of Sterol 14-alpha demethylase (Q7Z1V1 whole entry): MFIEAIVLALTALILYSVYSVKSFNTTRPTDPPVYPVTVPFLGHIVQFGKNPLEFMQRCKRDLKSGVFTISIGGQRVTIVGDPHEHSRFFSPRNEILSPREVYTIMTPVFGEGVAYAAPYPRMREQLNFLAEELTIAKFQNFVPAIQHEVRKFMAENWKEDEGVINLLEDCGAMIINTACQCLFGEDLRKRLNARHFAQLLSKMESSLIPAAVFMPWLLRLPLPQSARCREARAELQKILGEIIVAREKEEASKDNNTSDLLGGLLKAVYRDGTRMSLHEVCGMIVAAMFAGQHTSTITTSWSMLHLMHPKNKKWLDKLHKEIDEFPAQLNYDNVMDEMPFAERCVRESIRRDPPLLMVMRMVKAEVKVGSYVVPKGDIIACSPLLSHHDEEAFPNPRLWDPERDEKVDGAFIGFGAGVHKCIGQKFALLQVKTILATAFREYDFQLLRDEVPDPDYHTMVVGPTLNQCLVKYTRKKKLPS

Compound | IC50 (Trypanosoma cruzi [1]) [µM] | IC50 (Leishmania donovani [2]) [µM] | IC50 (Trypanosoma cruzi [3]) [µM] | IC50 (Trypanosoma cruzi [4]) [µM] | IC50 (Trypanosoma cruzi [5]) [µM] | IC50 (Leishmania donovani [6]) [µM] | IC50 (Leishmania donovani [7]) [µM] | IC50 [8] [µM] | IC50 [9] [µM] | IC50 (Leishmania donovani [10]) [µM] | IC50 [11] [µM] | IC50 at 48 h [12] [µM]
Cc1cc(NC(=O)C2CCCCC2)n(-c2nc3c(c(=O)[nH]2)CCC3)n1 | 2 | 10 | 0.316 | 0.501 | 0.158 | 3.16 | 5.01 | 0.158 | > 100 | 0.0398 | 0.126 | 50.1
Cc1cc(NC(=O)CC2CCCCC2)n(-c2nc3c(c(=O)[nH]2)CCC3)n1 | 3.98 | 3.98 | 0.251 | 0.316 | 0.126 | 1.58 | 3.16 | 0.158 | > 100 | 0.0316 | 0.2 | > 100
Cc1ccc2c(c1)SC(C(=O)Nc1nnc(-c3ccccn3)[nH]1)C2 (stereo unspecified) | > 50.1 | 25.1 | 5.01 | 7.94 | 6.31 | 2.51 | 3.98 | > 39.8 | > 100 | 6.31 | 3.98 | 25.1
Cn1nccc1NC(=O)Cn1ccc(-c2ccncc2)n1 | > 50.1 | > 50.1 | > 50.1 | > 50.1 | > 50.1 | > 50.1 | > 50.1 | 0.631 | 6.31 | > 50.1 | 0.631 | > 100
Cc1cn[nH]c1C1CCCN(Cc2nc3ccccc3n2C)C1 (stereo unspecified) | > 50.1 | 20 | 3.16 | 20 | 10 | 3.16 | 3.98 | 7.94 | 1.26 | 15.8 | 6.31 | 50.1
COc1ccc(Cl)cc1CC(=O)Nc1nnc(-c2ccccn2)[nH]1 | > 50.1 | > 50.1 | 10 | > 50.1 | 10 | 5.01 | 6.31 | > 39.8 | > 100 | 3.98 | 15.8 | 31.6
O=C(Cc1ccc2c(c1)CCC2)Nc1nnc(-c2ccccn2)[nH]1 | > 50.1 | > 50.1 | 10 | 10 | 10 | 6.31 | 6.31 | > 39.8 | 2.51 | 7.94 | 20 | 50.1
COc1ccc(Nc2nccc(N(C)c3n[nH]c4c(F)cccc34)n2)cc1S(C)(=O)=O | 7.94 | 10 | 2 | 3.98 | 2 | 1 | 2.51 | 10 | 31.6 | 25.1 | 6.31 | 20
COc1ccccc1CNc1cc(C2CC2)nc(-c2nccn2C)n1 | 0.631 | 15.8 | 0.891 | 0.794 | 1 | 0.398 | 0.501 | 2 | 20 | 1 | 2.51 | 20
COc1ccc(CNc2cc(C3CC3)nc(-c3nccn3C)n2)cc1 | 1 | 12.6 | 1 | 0.794 | 0.631 | 0.794 | 0.794 | 2.51 | 5.01 | 2 | 1.26 | 25.1
Cc1ccccc1CNc1cc(C2CC2)nc(-c2nccn2C)n1 | 0.794 | 10 | 0.794 | 0.794 | 0.794 | 0.631 | 0.631 | 1.58 | 15.8 | 1.58 | 2.51 | 15.8
Cn1ccnc1-c1nc(NCc2ccccc2Cl)cc(C2CC2)n1 | 0.631 | 7.94 | 0.631 | 0.794 | 0.794 | 0.2 | 0.631 | 1.58 | 39.8 | 1.58 | 2 | 20
Oc1cccnc1-c1nc(Cc2ccccc2)n[nH]1 | 15.8 | 15.8 | 6.31 | 7.94 | 6.31 | 2 | 3.16 | 10 | > 100 | 2 | 5.01 | 79.4
O=C(Nc1nnc(-c2ccccn2)[nH]1)C1CC1c1ccccc1 (stereo unspecified) | > 50.1 | 20 | 15.8 | 20 | 15.8 | 7.94 | 7.94 | 20 | > 100 | 12.6 | > 12.6 | > 100
CCOc1ccc(NC(=O)c2ccc(NC(=O)NC3CCCCC3)cc2)cc1 | > 50.1 | 3.98 | 31.6 | > 50.1 | > 50.1 | 6.31 | 7.94 | 0.501 | > 100 | > 50.1 | 0.2 | > 100
COc1ccc(S(=O)(=O)Nc2ccc(CN3CCN(C(=O)c4cccc(C#N)c4)CC3)cc2)cc1 | > 50.1 | > 50.1 | 1 | 1 | 0.794 | > 50.1 | > 50.1 | 0.631 | > 100 | 31.6 | 0.398 | > 100
Cc1ccc(S(=O)(=O)Nc2ccc(CN3CCN(C(=O)c4cccc(C)c4)CC3)cc2)cc1 | > 50.1 | 39.8 | 0.501 | 0.316 | 0.316 | 31.6 | 39.8 | 0.501 | 79.4 | 25.1 | 0.251 | > 100
Cc1ccc(Nc2nc(C3CCCN3Cc3cc[nH]n3)cs2)nc1 (stereo unspecified) | 10 | 25.1 | 0.794 | 2 | 2 | 1.26 | 1.58 | 3.98 | 6.31 | 12.6 | 0.794 | 31.6
